Experimental data reported in patent publication US8188139B2, “Heterocyclic-substituted phenyl methanones” (Hoffman-La Roche Inc., priority 2005, dated 2012).

target: T1, mGlyT-1b (Mus musculus, UniProt P28571); assay: Glycine uptake inhibition assay (mGlyT-1b); format: cell-based; conditions: inhibition of [3H]-glycine uptake in Flp-in-CHO cells transfected with mGlyT-1b cDNA; 20 min preincubation at 22° C.; read-out: IC50 (μM) at GlyT-1
T1 construct: host or cells: Flp-in-CHO
T1 sequence (P28571 1-651 isoform P28571-2): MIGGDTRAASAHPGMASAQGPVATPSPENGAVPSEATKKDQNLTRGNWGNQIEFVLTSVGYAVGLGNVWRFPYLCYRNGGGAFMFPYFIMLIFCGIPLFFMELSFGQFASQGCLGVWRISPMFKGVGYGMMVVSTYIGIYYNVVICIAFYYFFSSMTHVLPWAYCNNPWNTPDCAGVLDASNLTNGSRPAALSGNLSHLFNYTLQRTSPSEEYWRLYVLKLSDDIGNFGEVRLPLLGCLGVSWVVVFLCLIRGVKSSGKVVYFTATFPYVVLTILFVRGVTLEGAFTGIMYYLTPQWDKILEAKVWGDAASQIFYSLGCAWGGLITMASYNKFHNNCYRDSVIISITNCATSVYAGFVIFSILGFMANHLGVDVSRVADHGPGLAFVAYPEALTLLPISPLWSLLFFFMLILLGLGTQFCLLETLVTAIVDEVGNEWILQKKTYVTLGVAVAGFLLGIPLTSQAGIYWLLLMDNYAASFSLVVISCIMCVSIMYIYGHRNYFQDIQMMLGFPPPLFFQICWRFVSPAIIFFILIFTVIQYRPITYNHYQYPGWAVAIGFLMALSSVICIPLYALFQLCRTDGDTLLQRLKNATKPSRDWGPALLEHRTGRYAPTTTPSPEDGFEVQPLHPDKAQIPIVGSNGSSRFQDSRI
Description: DMEM complete medium: Nutrient mixture F-12 (Gibco Life-technologies), fetal bovine serum (FBS) 5%, (Gibco life technologies), Penicillin/Streptomycin1% (Gibco life technologies), Hygromycin 0.6 mg/ml (Gibco life technologies), Glutamine 1 mM Gibco life technologies)
Uptake buffer (UB): 150 mM NaCl, 10 mM Hepes-Tris, pH 7.4, 1 mM CaCl2, 2.5 mM KCl, 2.5 mM MgSO4, 10 mM (+) D-glucose.
Flp-in™-CHO (Invitrogen Cat n^o R758-07) cells stably transfected with mGlyT1b cDNA.
Glycine Uptake Inhibition Assay (mGlyT-1b)
On day 1 mammalian cells, (Flp-in™-CHO), transfected with mGlyT-1b cDNA, were plated at the density of 40,000 cells/well in complete F-12 medium, without hygromycin in 96-well culture plates. On day 2, the medium was aspirated, and the cells were washed twice with uptake buffer (UB). The cells were then incubated for 20 min at 22° C. with either (i) no potential competitor, (ii) 10 mM non-radioactive glycine, (iii) a concentration of a potential inhibitor. A range of concentrations of the potential inhibitor was used to generate data for calculating the concentration of inhibitor resulting in 50% of the effect (e.g. IC50, the concentration of the competitor inhibiting glycine uptake of 50%). A solution was then immediately added containing [^3H]-glycine 60 nM (11-16 Ci/mmol) and 25 μM non-radioactive glycine. The plates were incubated with gentle shaking, and the reaction was stopped by aspiration of the mixture and washing (three times) with ice-cold UB. The cells were lysed with scintillation liquid, shaken 3 hours, and the radioactivity in the cells was counted using a scintillation counter.

IC50 [µM] | Compound
0.031 | CC(Oc1ccc(S(C)(=O)=O)cc1C(=O)N1Cc2cc(Cl)c(Cl)cc2C1)C(F)(F)F (racemic) [Example 9, rac-(5,6-Dichloro-1,3-dihydro-isoindol-2-yl)-[5-methanesulfonyl-2-(2,2,2-trifluoro-1-methyl-ethoxy)-phenyl]-methanone]
0.032 | C[C@H](Oc1ccc(S(C)(=O)=O)cc1C(=O)N1Cc2ccc(C3CCCOC3)cc2C1)C(F)(F)F (mixture of isomers) [Example 312, [5-Methanesulfonyl-2-((S)-2,2,2-trifluoro-1-methyl-ethoxy)-phenyl]-[5-(tetrahydro-pyran-3-yl)-1,3-dihydro-isoindol-2-yl]-methanone]
0.01 | C[C@H](Oc1ccc(S(C)(=O)=O)cc1C(=O)N1Cc2cc(Cl)c(C3CCOC3)cc2C1)C(F)(F)F (mixture of isomers) [Example 359, [5-Chloro-6-(tetrahydro-furan-3-yl)-1,3-dihydro-isoindol-2-yl]-[5-methanesulfonyl-2-((S)-2,2,2-trifluoro-1-methyl-ethoxy)-phenyl]-methanone]
0.022 | CC(C)Oc1ccc(S(C)(=O)=O)cc1C(=O)N1Cc2ccc(C3CCOC3)cc2C1 (racemic) [Example 360, rac-(2-Isopropoxy-5-methanesulfonyl-phenyl)-[5-(tetrahydro-furan-3-yl)-1,3-dihydro-isoindol-2-yl]-methanone]
0.002 | CS(=O)(=O)c1ccc(OCC(F)(F)C(F)(F)F)c(C(=O)N2Cc3ccc(C4CCOC4)cc3C2)c1 (racemic) [Example 361, rac-[5-Methanesulfonyl-2-(2,2,3,3,3-pentafluoro-propoxy)-phenyl]-[5-(tetrahydro-furan-3-yl)-1,3-dihydro-isoindol-2-yl]-methanone]
0.005 | CS(=O)(=O)c1ccc(OCC(F)(F)C(F)(F)F)c(C(=O)N2Cc3ccc(C4CCCOC4)cc3C2)c1 (racemic) [Example 364, rac-[5-Methanesulfonyl-2-(2,2,3,3,3-pentafluoro-propoxy)-phenyl]-[5-(tetrahydro-pyran-3-yl)-1,3-dihydro-isoindol-2-yl]-methanone]
0.042 | CC(C)Oc1ccc(S(C)(=O)=O)cc1C(=O)N1Cc2cc(Cl)c(Cl)cc2C1 [Example 5, (5,6-Dichloro-1,3-dihydro-isoindol-2-yl)-(2-isopropoxy-5-methanesulfonyl-phenyl)-methanone]
0.021 | C[C@H](Oc1ccc(S(C)(=O)=O)cc1C(=O)N1Cc2ccc(C(F)(F)F)cc2C1)C(F)(F)F [Example 15, [5-Methanesulfonyl-2-((S)-2,2,2-trifluoro-1-methyl-ethoxy)-phenyl]-(5-trifluoromethyl-1,3-dihydro-isoindol-2-yl)-methanone]
0.048 | CC(C)Sc1ccc(S(C)(=O)=O)cc1C(=O)N1Cc2cc(Cl)c(Cl)cc2C1 [Example 16, (5,6-Dichloro-1,3-dihydro-isoindol-2-yl)-(2-isopropylsulfanyl-5-methanesulfonyl-phenyl)-methanone]
0.012 | C[C@@H](Oc1ccc(S(C)(=O)=O)cc1C(=O)N1Cc2ccc(C(F)(F)F)cc2C1)C(F)(F)F [Example 17, [5-Methanesulfonyl-2-((R)-2,2,2-trifluoro-1-methyl-ethoxy)-phenyl]-(5-trifluoromethyl-1,3-dihydro-isoindol-2-yl)-methanone]
0.019 | Cc1cc2c(cc1Cl)CN(C(=O)c1cc(S(C)(=O)=O)ccc1O[C@@H](C)C(F)(F)F)C2 [Example 24, (5-Chloro-6-methyl-1,3-dihydro-isoindol-2-yl)-[5-methanesulfonyl-2-((S)-2,2,2-trifluoro-1-methyl-ethoxy)-phenyl]-methanone]
0.022 | COc1cc2c(cc1Cl)CN(C(=O)c1cc(S(C)(=O)=O)ccc1O[C@@H](C)C(F)(F)F)C2 [Example 27, (5-Chloro-6-methoxy-1,3-dihydro-isoindol-2-yl)-[5-methanesulfonyl-2-((S)-2,2,2-trifluoro-1-methyl-ethoxy)-phenyl]-methanone]
0.037 | CCSc1ccc2c(c1)CN(C(=O)c1cc(S(C)(=O)=O)ccc1O[C@@H](C)C(F)(F)F)C2 [Example 32, (5-Ethylsulfanyl-1,3-dihydro-isoindol-2-yl)-[5-methanesulfonyl-2-((S)-2,2,2-trifluoro-1-methyl-ethoxy)-phenyl]-methanone]
0.034 | CNS(=O)(=O)c1ccc(OC(C)C)c(C(=O)N2Cc3ccc(C(F)(F)F)cc3C2)c1 [Example 43, 4-Isopropoxy-N-methyl-3-(5-trifluoromethyl-1,3-dihydro-isoindole-2-carbonyl)-benzenesulfonamide]
0.034 | Cc1cc2c(cc1Cl)CN(C(=O)c1cc(S(C)(=O)=O)ccc1O[C@H](C)C(F)(F)F)C2 [Example 49, (5-Chloro-6-methyl-1,3-dihydro-isoindol-2-yl)-[5-methanesulfonyl-2-((R)-2,2,2-trifluoro-1-methyl-ethoxy)-phenyl]-methanone]
0.036 | CCSc1cc2c(cc1Cl)CN(C(=O)c1cc(S(C)(=O)=O)ccc1O[C@H](C)C(F)(F)F)C2 [Example 59, (5-Chloro-6-ethylsulfanyl-1,3-dihydro-isoindol-2-yl)-[5-methanesulfonyl-2-((R)-2,2,2-trifluoro-1-methyl-ethoxy)-phenyl]-methanone]
0.049 | COc1cc2c(cc1Cl)CN(C(=O)c1cc(S(C)(=O)=O)ccc1SC(C)C)C2 [Example 71, (5-Chloro-6-methoxy-1,3-dihydro-isoindol-2-yl)-(2-isopropylsulfanyl-5-methanesulfonyl-phenyl)-methanone]
0.031 | COc1ccc2c(c1)CN(C(=O)c1cc(S(C)(=O)=O)ccc1OC(C)C)C2 [Example 74, (2-Isopropoxy-5-methanesulfonyl-phenyl)-(5-methoxy-1,3-dihydro-isoindol-2-yl)-methanone]
0.042 | Cc1cc2c(cc1C(F)(F)F)CN(C(=O)c1cc(S(C)(=O)=O)ccc1O[C@@H](C)C(F)(F)F)C2 [Example 99, [5-Methanesulfonyl-2-((S)-2,2,2-trifluoro-1-methyl-ethoxy)-phenyl]-(5-methyl-6-trifluoromethyl-1,3-dihydro-isoindol-2-yl)-methanone]
0.045 | COc1cc2c(cc1C(F)(F)F)CN(C(=O)c1cc(S(C)(=O)=O)ccc1O[C@@H](C)C(F)(F)F)C2 [Example 100]
0.046 | C[C@H](Oc1ccc(S(C)(=O)=O)cc1C(=O)N1Cc2ccc(OC(F)(F)F)cc2C1)C(F)(F)F [Example 103, [5-Methanesulfonyl-2-((S)-2,2,2-trifluoro-1-methyl-ethoxy)-phenyl]-(5-trifluoro-methoxy-1,3-dihydro-isoindol-2-yl)-methanone]
0.038 | CS(=O)(=O)c1ccc(OCC2CCC2)c(C(=O)N2Cc3cnc(C(F)(F)F)cc3C2)c1 [Example 118, (2-Cyclobutyl-methoxy-5-methane-sulfonyl-phenyl)-(6-trifluoromethyl-1,3-dihydro-pyrrolo [3,4-c]pyridin-2-yl)-methanone]
0.047 | CS(=O)(=O)c1ccc(-c2ccc(F)cc2)c(C(=O)N2Cc3cnc(C(F)(F)F)cc3C2)c1 [Example 121, (4′-Fluoro-4-methanesulfonyl-biphenyl-2-yl)-(6-trifluoromethyl-1,3-dihydro-pyrrolo[3,4-c]pyridin-2-yl)-methanone]
0.03 | CS(=O)(=O)c1ccc(OCC2CCC2)c(C(=O)N2Cc3cc(C(F)(F)F)cnc3C2)c1 [Example 124, (2-Cyclobutyl-methoxy-5-methane-sulfonyl-phenyl)-(3-trifluoromethyl-5,7-dihydro-pyrrolo[3,4-b]pyridin-6-yl)-methanone]

Compound | IC50 [µM]
CC(C)COc1ccc(S(C)(=O)=O)cc1C(=O)N1Cc2ccc(C(F)(F)F)cc2C1 [Example 35, (2-Isobutoxy-5-methanesulfonyl-phenyl)-(5-trifluoromethyl-1,3-dihydro-isoindol-2-yl)-methanone] | 0.028
Cc1cc2c(cc1Cl)CN(C(=O)c1cc(S(C)(=O)=O)ccc1OCC(C)C)C2 [Example 56, (5-Chloro-6-methyl-1,3-dihydro-isoindol-2-yl)-(2-isobutoxy-5-methanesulfonyl-phenyl)-methanone] | 0.016
